Molecular target: T1, horseradish peroxidase (HRP) (Armoracia rusticana, UniProt P00433)
T1 construct: gene PRXC1A; commercial native enzyme from horseradish, Alfa Aesar; free in solution, together with GOx
T1 sequence (P00433 31-338): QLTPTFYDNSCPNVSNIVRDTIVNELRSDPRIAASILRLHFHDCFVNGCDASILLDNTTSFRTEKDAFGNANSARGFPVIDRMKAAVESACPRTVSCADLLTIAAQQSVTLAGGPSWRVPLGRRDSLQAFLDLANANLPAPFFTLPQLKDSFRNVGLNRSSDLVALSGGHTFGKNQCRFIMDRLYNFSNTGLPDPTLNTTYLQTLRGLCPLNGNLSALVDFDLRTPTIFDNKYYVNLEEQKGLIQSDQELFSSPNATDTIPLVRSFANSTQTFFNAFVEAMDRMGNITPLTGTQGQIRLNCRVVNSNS
Test: GOx/HRP cascade, TMB oxidation by H2O2 formed by GOx, absorbance at […] nm
Type: biochemical
Conditions: H2O2 from GOx and glucose, 0.2 M acetate buffer pH 4, 20-23 °C; free enzymes

In the case of `Cc1cc(-c2cc(C)c(N)c(C)c2)cc(C)c1N` [TMB, 3,3′,5,5′-tetramethylbenzidine], the “GOx/HRP cascade, TMB oxidation by H2O2 formed by GOx, absorbance at 652 nm” value is reported as “the HRP used this H2O2 to oxidize a chromophore compound (TMB)”.

Source: article PMC9864776, “Synthesis of Novel Polymer-Assisted Organic-Inorganic Hybrid Nanoflowers and Their Application in Cascade Biocatalysis” (Molecules, 2023)
